US20260232574A1, “COMPOSITIONS AND METHODS FOR TREATING DYSMENORRHEA” (Daré Bioscience, Inc., priority 2023, published 2026)

Assay: pH / titration curve of 4% diclofenac sodium in water
Assay type: physicochemical

pH of diclofenac in water (4% diclofenac sodium in water): around 7.8 | buffering capacity to adjust the pH by 1 unit (strong acid or base): 0.625 mMoles
SMILES: O=C(O)Cc1ccccc1Nc1c(Cl)cccc1Cl [diclofenac, 2-[2-(2,6-dichloroanilino)phenyl]acetic acid]
